Legend:
Format in all cases: in vivo
[1] = tested on: cocklebur (Xanthium strumarium); test: Test B pre-/postemergence plant response
Procedure, shortened: (§1)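 Response scores were assigned visually after 13 to 15 days in a greenhouse, comparing treated pots with controls on a 0–100 scale where 100 denotes complete control. Preemergence treatments went onto freshly seeded loam/sand soil; postemergence treatments onto plants 2 to 18 cm tall.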

wild oat (Avena fatua) = test: Test B pre-/postemergence plant response
Procedure, shortened: as §1

[2] = tested on: blackgrass (Alopecurus myosuroides); test: Test B pre-/postemergence plant response
Procedure, shortened: as §1

[3] = tested on: johnsongrass (Sorghum halepense); test: Test B pre-/postemergence plant response
Procedure, shortened: as §1

kochia (Kochia scoparia) = test: Test B pre-/postemergence plant response
Procedure, shortened: as §1

[4] = tested on: yellow nutsedge (Cyperus esculentus); test: Test B pre-/postemergence plant response
Procedure, shortened: as §1

[5] = tested on: ragweed (common ragweed, Ambrosia elatior); test: Test B pre-/postemergence plant response
Procedure, shortened: as §1

[6] = tested on: downy bromegrass (Bromus tectorum); test: Test B pre-/postemergence plant response
Procedure, shortened: as §1

[7] = tested on: morningglory (Ipomoea coccinea); test: Test B pre-/postemergence plant response
Procedure, shortened: as §1

[8] = tested on: wheat (Triticum aestivum); test: Test B pre-/postemergence plant response
Procedure, shortened: as §1

[9] = tested on: bermudagrass (Cynodon dactylon); test: Test B pre-/postemergence plant response
Procedure, shortened: as §1

[10] = tested on: giant foxtail (Setaria faberii); test: Test B pre-/postemergence plant response
Procedure, shortened: as §1

[11] = tested on: velvetleaf (Abutilon theophrasti); test: Test B pre-/postemergence plant response
Procedure, shortened: as §1

soybean (Glycine max) = test: Test B pre-/postemergence plant response
Procedure, shortened: as §1

[12] = tested on: green foxtail (Setaria viridis); test: Test B pre-/postemergence plant response
Procedure, shortened: as §1

[13] = tested on: chickweed (Stellaria media); test: Test B postemergence plant response
Procedure, shortened: (§2)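 Visual ratings from 0 (no effect) to 100 (complete control), made against controls 13–15 days after treatment, kept in a greenhouse. Compounds were applied postemergence to potted plants at the 1- to 4-leaf stage (2–18 cm).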

[14] = tested on: windgrass (Apera spica-venti); test: Test B postemergence plant response
Procedure, shortened: as §2

[15] = tested on: canarygrass (Phalaris minor); test: Test B postemergence plant response
Procedure, shortened: as §2

[16] = 31 g ai/ha, postemergence, scale 0 to 100, 0 is no effect, 100 is complete control
[17] = 250 g ai/ha, Preemergence, 0 to 100 scale
[18] = Postemergence, 62 g ai/ha, scale 0 (no effect) to 100 (complete control), 13 to 15 days
[19] = Postemergence, 125 g ai/ha, visual rating after 13 to 15 days, scale 0 (no effect) to 100 (complete control)
[20] = Postemergence, 250 g ai/ha, scale 0 to 100 (0 no effect, 100 complete control)
[21] = Preemergence, 31 g ai/ha, scale 0 to 100 (0 no effect, 100 complete control)
[22] = Preemergence, 62 g ai/ha, scale 0 to 100, 0 no effect, 100 complete control
[23] = Preemergence, 125 g ai/ha, scale 0 to 100, 0 no effect, 100 complete control

In the case of `CCCCc1ncc(C(=O)C2=C(O)CCCC2=O)c(=O)n1-c1ccccc1C` [Compound 62], the “Plant response rating, Cocklebur” value [1, 16] is reported as 25, the “Plant response rating, Cocklebur” value [1, 17] is reported as 10 and the “Plant response rating, Cocklebur” value [1, 18] is reported as 55. The “Plant response rating, Cocklebur” value [1, 19] was 55, the “Plant response rating, Cocklebur” value [1, 20] was 75 and the “Plant response rating, Cocklebur” value [1, 21] was 0. For the same molecule, the “Plant response rating, Cocklebur” value [1, 22] was 0, the “Plant response rating, Cocklebur” value [1, 23] was 0 and the “Plant response rating, Oat, Wild” value (wild oat (Avena fatua); [16]) was 5. For the same molecule, the “Plant response rating, Oat, Wild” value (wild oat (Avena fatua); [18]) was 10, the “Plant response rating, Oat, Wild” value (wild oat (Avena fatua); [19]) was 25 and the “Plant response rating, Oat, Wild” value (wild oat (Avena fatua); [20]) was 40. The “Plant response rating, Oat, Wild” value (wild oat (Avena fatua); [21]) was 0, the “Plant response rating, Oat, Wild” value (wild oat (Avena fatua); [22]) was 0 and the “Plant response rating, Oat, Wild” value (wild oat (Avena fatua); [23]) was 0. For the same molecule, the “Plant response rating, Blackgrass” value [2, 16] was 15, the “Plant response rating, Blackgrass” value [2, 17] was 0 and the “Plant response rating, Blackgrass” value [2, 18] was 30. For the same molecule, the “Plant response rating, Blackgrass” value [2, 19] was 30, the “Plant response rating, Blackgrass” value [2, 20] was 50 and the “Plant response rating, Blackgrass” value [2, 21] was 0. For the same molecule, the “Plant response rating, Blackgrass” value [2, 22] was 0, the “Plant response rating, Blackgrass” value [2, 23] was 0 and the “Plant response rating, Johnsongrass” value [3, 16] was 0. For the same molecule, the “Plant response rating, Johnsongrass” value [3, 18] was 0, the “Plant response rating, Johnsongrass” value [3, 19] was 0 and the “Plant response rating, Johnsongrass” value [3, 20] was 10. The “Plant response rating, Johnsongrass” value [3, 21] was 0, the “Plant response rating, Johnsongrass” value [3, 22] was 0 and the “Plant response rating, Johnsongrass” value [3, 23] was 0. The “Plant response rating, Kochia” value (kochia (Kochia scoparia); [16]) was 10, the “Plant response rating, Kochia” value (kochia (Kochia scoparia); [17]) was 100 and the “Plant response rating, Kochia” value (kochia (Kochia scoparia); [18]) was 25. The “Plant response rating, Kochia” value (kochia (Kochia scoparia); [19]) was 60, the “Plant response rating, Kochia” value (kochia (Kochia scoparia); [20]) was 80 and the “Plant response rating, Kochia” value (kochia (Kochia scoparia); [21]) was 98. The “Plant response rating, Kochia” value (kochia (Kochia scoparia); [22]) was 100, the “Plant response rating, Kochia” value (kochia (Kochia scoparia); [23]) was 100 and the “Plant response rating, Nutsedge, Yellow” value [4, 16] was 15. For the same molecule, the “Plant response rating, Nutsedge, Yellow” value [4, 18] was 25, the “Plant response rating, Nutsedge, Yellow” value [4, 19] was 35 and the “Plant response rating, Nutsedge, Yellow” value [4, 20] was 55. For the same molecule, the “Plant response rating, Nutsedge, Yellow” value [4, 21] was 15, the “Plant response rating, Nutsedge, Yellow” value [4, 22] was 25 and the “Plant response rating, Nutsedge, Yellow” value [4, 23] was 45. For the same molecule, the “Plant response rating, Ragweed” value [5, 16] was 70, the “Plant response rating, Ragweed” value [5, 18] was 75 and the “Plant response rating, Ragweed” value [5, 19] was 75. The “Plant response rating, Ragweed” value [5, 20] was 80, the “Plant response rating, Ragweed” value [5, 21] was 0 and the “Plant response rating, Ragweed” value [5, 22] was 20. The “Plant response rating, Ragweed” value [5, 23] was 45, the “Plant response rating, Bromegrass, Downy” value [6, 16] was 30 and the “Plant response rating, Bromegrass, Downy” value [6, 17] was 0. The “Plant response rating, Bromegrass, Downy” value [6, 18] was 45, the “Plant response rating, Bromegrass, Downy” value [6, 19] was 50 and the “Plant response rating, Bromegrass, Downy” value [6, 20] was 50. For the same molecule, the “Plant response rating, Bromegrass, Downy” value [6, 21] was 0, the “Plant response rating, Bromegrass, Downy” value [6, 22] was 0 and the “Plant response rating, Bromegrass, Downy” value [6, 23] was 0. The “Plant response rating, Morningglory” value [7, 18] was 15, the “Plant response rating, Morningglory” value [7, 19] was 75 and the “Plant response rating, Morningglory” value [7, 20] was 75. The “Plant response rating, Morningglory” value [7, 21] was 0, the “Plant response rating, Morningglory” value [7, 22] was 0 and the “Plant response rating, Morningglory” value [7, 23] was 0. For the same molecule, the “Plant response rating, Wheat” value [8, 16] was 0, the “Plant response rating, Wheat” value [8, 18] was 0 and the “Plant response rating, Wheat” value [8, 19] was 5. For the same molecule, the “Plant response rating, Wheat” value [8, 20] was 30, the “Plant response rating, Wheat” value [8, 21] was 0 and the “Plant response rating, Wheat” value [8, 22] was 0. For the same molecule, the “Plant response rating, Wheat” value [8, 23] was 0, the “Plant response rating, Bermudagrass” value [9, 17] was 100 and the “Plant response rating, Bermudagrass” value [9, 18] was 80. The “Plant response rating, Bermudagrass” value [9, 19] was 85, the “Plant response rating, Bermudagrass” value [9, 20] was 90 and the “Plant response rating, Bermudagrass” value [9, 21] was 20. The “Plant response rating, Bermudagrass” value [9, 22] was 75, the “Plant response rating, Bermudagrass” value [9, 23] was 95 and the “Plant response rating, Foxtail, Giant” value [10, 16] was 55. The “Plant response rating, Foxtail, Giant” value [10, 17] was 20, the “Plant response rating, Foxtail, Giant” value [10, 18] was 65 and the “Plant response rating, Foxtail, Giant” value [10, 19] was 75. For the same molecule, the “Plant response rating, Foxtail, Giant” value [10, 20] was 80, the “Plant response rating, Foxtail, Giant” value [10, 21] was 0 and the “Plant response rating, Foxtail, Giant” value [10, 22] was 0. For the same molecule, the “Plant response rating, Foxtail, Giant” value [10, 23] was 20, the “Plant response rating, Velvetleaf” value [11, 16] was 85 and the “Plant response rating, Velvetleaf” value [11, 18] was 95. The “Plant response rating, Velvetleaf” value [11, 19] was 95, the “Plant response rating, Velvetleaf” value [11, 20] was 100 and the “Plant response rating, Velvetleaf” value [11, 21] was 75. The “Plant response rating, Velvetleaf” value [11, 22] was 75, the “Plant response rating, Velvetleaf” value [11, 23] was 95 and the “Plant response rating, Soybean” value (soybean (Glycine max); [16]) was 75. The “Plant response rating, Soybean” value (soybean (Glycine max); [18]) was 80, the “Plant response rating, Soybean” value (soybean (Glycine max); [19]) was 90 and the “Plant response rating, Soybean” value (soybean (Glycine max); [20]) was 95. The “Plant response rating, Soybean” value (soybean (Glycine max); [21]) was 0, the “Plant response rating, Soybean” value (soybean (Glycine max); [22]) was 80 and the “Plant response rating, Soybean” value (soybean (Glycine max); [23]) was 80. For the same molecule, the “Plant response rating, Foxtail, Green” value [12, 16] was 40, the “Plant response rating, Foxtail, Green” value [12, 17] was 10 and the “Plant response rating, Foxtail, Green” value [12, 18] was 70. For the same molecule, the “Plant response rating, Foxtail, Green” value [12, 19] was 80, the “Plant response rating, Foxtail, Green” value [12, 20] was 85 and the “Plant response rating, Foxtail, Green” value [12, 21] was 0. For the same molecule, the “Plant response rating, Foxtail, Green” value [12, 22] was 0, the “Plant response rating, Foxtail, Green” value [12, 23] was 10 and the “Plant response rating, Chickweed” value [13, 16] was 70. The “Plant response rating, Chickweed” value [13, 18] was 70, the “Plant response rating, Chickweed” value [13, 19] was 75 and the “Plant response rating, Chickweed” value [13, 20] was 80. The “Plant response rating, Windgrass” value [14, 16] was 30, the “Plant response rating, Windgrass” value [14, 18] was 35 and the “Plant response rating, Windgrass” value [14, 19] was 35. The “Plant response rating, Windgrass” value [14, 20] was 50, the “Plant response rating, Canarygrass” value [15, 16] was 0 and the “Plant response rating, Canarygrass” value [15, 18] was 0. The “Plant response rating, Canarygrass” value [15, 19] was 0 and the “Plant response rating, Canarygrass” value [15, 20] was 5.
